7 compounds from ChEMBL document CHEMBL4177677, “Relevance of Half-Life in Drug Design” (J Med Chem, 2018) can be followed below.

Data set [1] is described as follows: Half life in human. The data set is classed as ADME, organism-based. To be noted: in vivo.
Data set [2] can be described thus: Terminal half life in human. It is filed as ADME, organism-based. To be noted: in vivo, read-out: beta t1/2.
The nature of data set [3]: Drug excretion in human kidney. The conditions noted are these: urine.
Data set [4] can be described thus: Terminal half life in human at 0.1 mg/kg, iv. To be noted: in vivo, read-out: beta t1/2 (converted). It is filed as ADME, organism-based.
The nature of data set [5]: Inhibition of human calcium channel.
Data set [6] is filed under the species Homo sapiens. Kind of data set: Unbound concentration in human at 10 mg, tid. To be noted: in vivo.
Data set [7] can be described thus: Half life in human at 10 mg, tid. The conditions noted are these: in vivo.
The species named for data set [8] is Homo sapiens. Nature of the data set: Unbound concentration in human at 5 to 10 mg, qd. The data set is classed as ADME, organism-based. The conditions noted are these: in vivo.

Broadly, the IC50 is the concentration that gives 50% inhibition.

The structures appear in SMILES notation.

In data set [1], `COc1cc(F)c(C(C)C)cc1-c1ccc(C(F)(F)F)cc1CN1C(=O)O[C@H](c2cc(C(F)(F)F)cc(C(F)(F)F)c2)[C@@H]1C` [ANACETRAPIB] gave a half-life of 60 h.

In data set [1], `C[C@@H]1CCN(C(=O)CC#N)C[C@@H]1N(C)c1ncnc2[nH]ccc12` [TOFACITINIB] showed a half-life of 3 h.

With `CC(C(=O)O)c1ccc2oc(-c3ccc(Cl)cc3)nc2c1` (stereo not given) [BENOXAPROFEN], the half-life in data set [2] was in the range of 19 to 26 h.

`NCCCC(O)(P(=O)(O)O)P(=O)(O)O` [ALENDRONIC ACID] registered a dose excreted in data set [3] of 20 to 80%.

Regarding `NS(=O)(=O)N1CCN(C2CN(CC[C@]3(c4ccc(Cl)c(Cl)c4)CCC(=O)N(CC4CC4)C3)C2)CC1`, the half-life in data set [4] is 28 h.

Regarding `COC(=O)C1=C(C)NC(C)=C(C(=O)OC)C1c1ccccc1[N+](=O)[O-]` [NIFEDIPINE], the IC50 in data set [5] amounted to 4 nM. Also, in the data set filed under Homo sapiens [6], the “Drug uptake(free)” value came to 6 nM. Also, the half-life in data set [7] was 2 h.

As for `CCOC(=O)C1=C(COCCN)NC(C)=C(C(=O)OC)C1c1ccccc1Cl` (stereo not given) [AMLODIPINE], in data set [5], the IC50 stood at 2 nM. Further, the “Drug uptake(free)” value in the data set listed under Homo sapiens [8] was determined as 2 nM.
